Test results published in PubChem BioAssay AID248 (DTP/NCI, 2004).
Several values for one entry are separate records, joined by “and”; a condition that tells them apart may be missing. Identical values can stand only once. Inconclusive results and toxic doses are left out. Rule as the data show it: active = T/C of 150% or more; inactive = T/C below 125%. Peptide text beside a SMILES is read from it.

Test system: L1210 leukemia ip in BDF1 mice, survival T/C
Assay: NCI In Vivo Anticancer Drug Screen. Data for tumor model L1210 Leukemia (intraperitoneal) in B6D2F1 (BDF1) mice
Details: endpoint: mean survival time, higher = longer survival
In short: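 Antitumor effect is assessed in tumor-bearing animals. Survival in the compound arm is compared with a vehicle-dosed control arm and expressed as their quotient.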

[1] = dose: 100.0 mg/kg/injection, schedule: Q01DX001 (ip), vehicle: carboxymethylcellulose (CMC)
[2] = dose: 100.0 mg/kg/injection, schedule: Q04DX003 (ip), vehicle: carboxymethylcellulose (CMC)
[3] = dose: 200.0 mg/kg/injection, schedule: Q01DX001 (ip), vehicle: carboxymethylcellulose (CMC)
[4] = dose: 200.0 mg/kg/injection, schedule: Q04DX002 (ip), vehicle: carboxymethylcellulose (CMC)
[5] = dose: 200.0 mg/kg/injection, schedule: Q04DX003 (ip), vehicle: carboxymethylcellulose (CMC)
[6] = dose: 400.0 mg/kg/injection, schedule: Q01DX001 (ip), vehicle: carboxymethylcellulose (CMC)
[7] = dose: 400.0 mg/kg/injection, schedule: Q01DX009 (ip), vehicle: carboxymethylcellulose (CMC)
[8] = dose: 400.0 mg/kg/injection, schedule: Q04DX002 (ip), vehicle: carboxymethylcellulose (CMC)
[9] = dose: 400.0 mg/kg/injection, schedule: Q04DX003 (ip), vehicle: carboxymethylcellulose (CMC)
[10] = dose: 50.0 mg/kg/injection, schedule: Q01DX001 (ip), vehicle: carboxymethylcellulose (CMC)
[11] = dose: 100.0 mg/kg/injection, schedule: Q01DX009 (ip), vehicle: Klucel (hydroxypropylcellulose) (HPC)
[12] = dose: 200.0 mg/kg/injection, schedule: Q01DX009 (ip), vehicle: Klucel (hydroxypropylcellulose) (HPC)
[13] = dose: 100.0 mg/kg/injection, schedule: Q04DX003 (ip), vehicle: Klucel (hydroxypropylcellulose) (HPC)
[14] = dose: 200.0 mg/kg/injection, schedule: Q04DX003 (ip), vehicle: Klucel (hydroxypropylcellulose) (HPC)
[15] = dose: 400.0 mg/kg/injection, schedule: Q04DX003 (ip), vehicle: Klucel (hydroxypropylcellulose) (HPC)
[16] = dose: 100.0 mg/kg/injection, schedule: Q01DX009 (ip), vehicle: saline with Tween-80
[17] = dose: 100.0 mg/kg/injection, schedule: Q04DX003 (ip), vehicle: saline with Tween-80
[18] = dose: 200.0 mg/kg/injection, schedule: Q01DX009 (ip), vehicle: saline with Tween-80
[19] = dose: 200.0 mg/kg/injection, schedule: Q04DX003 (ip), vehicle: saline with Tween-80
[20] = dose: 400.0 mg/kg/injection, schedule: Q04DX003 (ip), vehicle: saline with Tween-80
[21] = dose: 100.0 mg/kg/injection, schedule: Q04DX002 (ip), vehicle: saline with Tween-80
[22] = dose: 200.0 mg/kg/injection, schedule: Q04DX002 (ip), vehicle: saline with Tween-80
[23] = dose: 400.0 mg/kg/injection, schedule: Q04DX002 (ip), vehicle: saline with Tween-80
[24] = dose: 75.0 mg/kg/injection, schedule: Q01DX001 (ip), vehicle: saline
[25] = dose: 150.0 mg/kg/injection, schedule: Q01DX001 (ip), vehicle: saline

Measured: T/C

O=C(Nc1cc([N+](=O)[O-])ccc1O)Nc1cc(C(F)(F)F)ccc1Cl
inactive: [1] 90 % of control | dose: 100.0 mg/kg/injection, schedule: Q01DX009 (ip), vehicle: carboxymethylcellulose (CMC) 95 % of control and 103 % of control | dose: 100.0 mg/kg/injection, schedule: Q04DX002 (ip), vehicle: carboxymethylcellulose (CMC) 97 % of control and 101 % of control | [2] 94 % of control | [3] 93 % of control | dose: 200.0 mg/kg/injection, schedule: Q01DX009 (ip), vehicle: carboxymethylcellulose (CMC) 93 % of control and 95 % of control | [4] 93 % of control and 97 % of control | [5] 92 % of control | [6] 92 % of control | [7] 92 % of control and 93 % of control | [8] 92 % of control and 90 % of control | [9] 97 % of control

CC[CH2][Sn]([CH2]CC)([CH2]CC)[CH2]CC
inactive: [10] 95 % of control | [1] 86 % of control

CS(=O)(=O)OCCN(CCOS(C)(=O)=O)c1ccccc1
inactive: dose: 100.0 mg/kg/injection, schedule: Q01DX001 (ip), vehicle: other 100 % of control

Cc1cc(C)c(CC(C)(CO)CO)cc1CC(C)(CO)CO
inactive: [11] 93 % of control | [12] 87 % of control | dose: 300.0 mg/kg/injection, schedule: Q01DX009 (ip), vehicle: Klucel (hydroxypropylcellulose) (HPC) 106 % of control

CC(NC(=O)C(CCC(=O)O)NC(=O)C(N)Cc1c[nH]c2ccccc12)C(=O)NCC(=O)NC(Cc1c[nH]c2ccccc12)C(=O)NC(CCC(=O)O)C(=O)NC(C)C(=O)NCC(=O)NCC(=O)O (stereo unspecified) (H-WEAGWEAGG-OH; configuration not given here)
inactive: [10] 96 % of control | [1] 98 % of control | [3] 96 % of control

OCC(I)C(CO)[n+]1ccccc1 (stereo unspecified)
inactive: dose: 12.5 mg/kg/injection, schedule: Q01DX009 (ip), vehicle: saline 104 % of control | dose: 12.5 mg/kg/injection, schedule: Q04DX003 (ip), vehicle: saline 102 % of control | dose: 25.0 mg/kg/injection, schedule: Q01DX009 (ip), vehicle: saline 110 % of control | dose: 25.0 mg/kg/injection, schedule: Q04DX003 (ip), vehicle: saline 100 % of control | dose: 50.0 mg/kg/injection, schedule: Q01DX009 (ip), vehicle: saline 101 % of control | dose: 50.0 mg/kg/injection, schedule: Q04DX003 (ip), vehicle: saline 102 % of control

Nc1c(Br)cc(O)c2c1C(=O)c1ccccc1C2=O
inactive: [11] 88 % of control | [13] 100 % of control | [12] 90 % of control | [14] 100 % of control | dose: 400.0 mg/kg/injection, schedule: Q01DX009 (ip), vehicle: Klucel (hydroxypropylcellulose) (HPC) 90 % of control | [15] 96 % of control

O=C(O)Cc1ccc2c3c(ccc([N+](=O)[O-])c13)CC2
inactive: dose: 50.0 mg/kg/injection, schedule: Q01DX009 (ip), vehicle: saline with Tween-80 95 % of control | [16] 93 % of control | [17] 96 % of control | [18] 90 % of control | [19] 96 % of control

CCOC(=O)N1C(=O)NC(=O)C1c1ccc(OC)cc1 (stereo unspecified)
inactive: dose: 50.0 mg/kg/injection, schedule: Q01DX001 (ip), vehicle: saline 91 % of control | dose: 100.0 mg/kg/injection, schedule: Q01DX001 (ip), vehicle: saline 97 % of control | dose: 200.0 mg/kg/injection, schedule: Q01DX001 (ip), vehicle: saline 100 % of control | dose: 400.0 mg/kg/injection, schedule: Q01DX001 (ip), vehicle: saline 102 % of control

CC(=O)Nc1ccc(OCCOC(=O)Nc2ccc(Cl)c(C(F)(F)F)c2)cc1
inactive: dose: 12.5 mg/kg/injection, schedule: Q01DX009 (ip), vehicle: carboxymethylcellulose (CMC) 95 % of control and 100 % of control | dose: 25.0 mg/kg/injection, schedule: Q01DX009 (ip), vehicle: carboxymethylcellulose (CMC) 95 % of control and 97 % of control | dose: 25.0 mg/kg/injection, schedule: Q04DX002 (ip), vehicle: carboxymethylcellulose (CMC) 92 % of control and 93 % of control | dose: 50.0 mg/kg/injection, schedule: Q04DX002 (ip), vehicle: carboxymethylcellulose (CMC) 95 % of control and 90 % of control | [1] 97 % of control and 101 % of control | [2] 92 % of control and 101 % of control | [3] 97 % of control and 102 % of control | [4] 94 % of control | [5] 92 % of control | [6] 97 % of control and 87 % of control | [7] 88 % of control and 90 % of control | [8] 94 % of control and 91 % of control | [9] 92 % of control and 97 % of control

C[N+](C)(C)C1(Cc2ccc(F)cc2)c2ccccc2-c2ccccc21
inactive: dose: 6.25 mg/kg/injection, schedule: Q01DX009 (ip), vehicle: saline with Tween-80 88 % of control | dose: 6.25 mg/kg/injection, schedule: Q04DX002 (ip), vehicle: saline with Tween-80 98 % of control | dose: 6.25 mg/kg/injection, schedule: Q04DX003 (ip), vehicle: saline with Tween-80 90 % of control | dose: 12.5 mg/kg/injection, schedule: Q04DX002 (ip), vehicle: saline with Tween-80 115 % of control | dose: 12.5 mg/kg/injection, schedule: Q04DX003 (ip), vehicle: saline with Tween-80 90 % of control | dose: 25.0 mg/kg/injection, schedule: Q01DX009 (ip), vehicle: saline with Tween-80 88 % of control | dose: 25.0 mg/kg/injection, schedule: Q04DX002 (ip), vehicle: saline with Tween-80 98 % of control | dose: 25.0 mg/kg/injection, schedule: Q04DX003 (ip), vehicle: saline with Tween-80 90 % of control

O=C(O)/C=C\c1cn(C2OC(CO)C(O)C(O)C2O)c2ccccc12 (stereo unspecified)
inactive: dose: 60.0 mg/kg/injection, schedule: Q01DX001 (ip), vehicle: sodium bicarbonate 105 % of control | dose: 120.0 mg/kg/injection, schedule: Q01DX001 (ip), vehicle: sodium bicarbonate 97 % of control

O=C(O)/C(=C\c1ccccc1)c1ccccc1
inactive: [17] 100 % of control | [19] 94 % of control | [20] 100 % of control

COc1ccc(OC(=O)Nc2ccc(Cl)cc2[N+](=O)[O-])cc1
inactive: [16] 95 % of control and 96 % of control | [21] 95 % of control and 98 % of control | [17] 97 % of control | [18] 99 % of control and 106 % of control | [22] 95 % of control and 101 % of control | [19] 110 % of control | dose: 400.0 mg/kg/injection, schedule: Q01DX009 (ip), vehicle: saline with Tween-80 99 % of control and 103 % of control | [23] 95 % of control and 98 % of control | [20] 100 % of control

NC(=O)N/N=C(/Cl)C(=O)NNC(N)=O
inactive: [21] 89 % of control | [22] 89 % of control | [23] 96 % of control

CCOC(=O)c1cnc(N)nc1
inactive: [13] 97 % of control | [14] 101 % of control | [15] 98 % of control

CC(=O)ON(C(C)=O)c1ccc(S(=O)(=O)c2ccc(N(OC(C)=O)C(C)=O)cc2)cc1
inactive: dose: 100.0 mg/kg/injection, schedule: Q04DX003 (ip), vehicle: saline 97 % of control | dose: 200.0 mg/kg/injection, schedule: Q04DX003 (ip), vehicle: saline 103 % of control | dose: 400.0 mg/kg/injection, schedule: Q04DX003 (ip), vehicle: saline 103 % of control

O=C(Nc1ccccc1)Oc1ccc(Br)cc1Br
inactive: [24] 94 % of control | [25] 89 % of control | dose: 300.0 mg/kg/injection, schedule: Q01DX001 (ip), vehicle: saline 94 % of control

Cc1ccc2nc(N=C(N)N)[nH]c2c1
inactive: [24] 93 % of control | [25] 94 % of control
